SMILES strings stand for the structures.

The record followed here is paper PMC6506387 (Structure (London, England : 1993), 2019).

Assay [1] has as its target T1, wt PKAcα (Homo sapiens, UniProt P17612). The note with it: 20 mM MOPS pH 7.0, 150 mM NaCl; ATP 0-0.75 mM.
Assay [2] addresses T1, wt PKAcα. The note with it: 1 mM ATP, 10 mM MgCl2, 20 mM MOPS pH 7.0, 150 mM NaCl, 0.5 °C/min.

With `Nc1ncnc2c1ncn2[C@@H]1O[C@H](COP(=O)(O)OP(=O)(O)OP(=O)(O)O)[C@@H](O)[C@H]1O` [ATP], the dissociation constant entry in assay [1] was “ATP dissociation constants were determined using the ThermoFluor assay”. Moreover, the thermal shift result in assay [2] is “stabilities of apo PKAcα or J-PKAcα subunits and its ATP and/or peptide binding forms”.
